How the values were obtained:
Format in all cases: functional
TK-10 = assay: Cytotoxicity against human TK10 cells assessed as cell growth at 10^-7 M after 48 hrs by SRB assay relative to control; conditions: TK-10, 48 h, read-out: Activity
T47D = assay: Cytotoxicity against human T47D cells assessed as cell growth at 10^-7 M after 48 hrs by SRB assay relative to control; conditions: read-out: Activity
CAKI-1 = assay: Cytotoxicity against human Caki1 cells assessed as cell growth at 10^-7 M after 48 hrs by SRB assay relative to control; conditions: CAKI-1, 48 h, read-out: Activity
[1] = Cytotoxicity against human OVCAR8 cells assessed as cell growth at 10^-8 M after 48 hrs by SRB assay relative to control; conditions: OVCAR-8, 48 h, read-out: Activity
[2] = Cytotoxicity against human HCT116 cells assessed as cell growth at 10^-7 M after 48 hrs by SRB assay relative to control; conditions: HCT-116, 48 h, read-out: Activity
SK-MEL-28 [3] = assay: Cytotoxicity against human SK-MEL-28 cells assessed as cell growth at 10^-4 M after 48 hrs by SRB assay relative to control; conditions: SK-MEL-28, 48 h, read-out: Activity
[4] = Cytotoxicity against human HCT15 cells assessed as cell growth at 10^-6 M after 48 hrs by SRB assay relative to control; conditions: HCT-15, 48 h, read-out: Activity
MDA-MB-468 = assay: Cytotoxicity against human MDA-MB-468 cells assessed as cell growth at 10^-6 M after 48 hrs by SRB assay relative to control; conditions: MDA-MB-468, 48 h, read-out: Activity
[5] = Cytotoxicity against human EKVX cells assessed as cell growth at 10^-8 M after 48 hrs by SRB assay relative to control; conditions: read-out: Activity
LOX IMVI = assay: Cytotoxicity against human LOXIMVI cells assessed as cell growth at 10^-8 M after 48 hrs by SRB assay relative to control; conditions: read-out: Activity
SF-268 [6] = assay: Cytotoxicity against human SF268 cells assessed as cell growth at 10^-8 M after 48 hrs by SRB assay relative to control; conditions: SF-268, 48 h, read-out: Activity
IGROV-1 = assay: Cytotoxicity against human IGROV1 cells after 48 hrs by SRB assay; conditions: IGROV-1, 48 h
786-0 [7] = assay: Cytotoxicity against human 786-0 cells assessed as cell growth at 10^-7 M after 48 hrs by SRB assay relative to control; conditions: 786-0, 48 h, read-out: Activity
Malme-3M = assay: Cytotoxicity against human MALME-3M cells after 48 hrs by SRB assay
[8] = Cytotoxicity against human HCT15 cells assessed as cell growth at 10^-7 M after 48 hrs by SRB assay relative to control; conditions: HCT-15, 48 h, read-out: Activity
KM12 = assay: Cytotoxicity against human KM12 cells after 48 hrs by SRB assay; conditions: KM12, 48 h
SF-268 [9] = assay: Cytotoxicity against human SF268 cells assessed as cell growth at 10^-7 M after 48 hrs by SRB assay relative to control; conditions: SF-268, 48 h, read-out: Activity
SNB-19 = assay: Cytotoxicity against human SNB19 cells assessed as cell growth at 10^-8 M after 48 hrs by SRB assay relative to control; conditions: SNB-19, 48 h, read-out: Activity
A498 [10] = assay: Cytotoxicity against human A498 cells assessed as cell growth at 10^-4 M after 48 hrs by SRB assay relative to control; conditions: A498, 48 h, read-out: Activity
[11] = Cytotoxicity against human UACC62 cells assessed as cell growth at 10^-7 M after 48 hrs by SRB assay relative to control; conditions: UACC-62, 48 h, read-out: Activity
[12] = Cytotoxicity against human OVCAR4 cells assessed as cell growth at 10^-8 M after 48 hrs by SRB assay relative to control; conditions: OVCAR-4, 48 h, read-out: Activity
HL-60(TB) = assay: Cytotoxicity against human HL-60(TB) cells after 48 hrs by SRB assay; conditions: HL-60, 48 h
MDA-MB-231 = assay: Cytotoxicity against human MDA-MB-231 cells after 48 hrs by SRB assay; conditions: MDA-MB-231, 48 h
SK-MEL-28 [13] = assay: Cytotoxicity against human SK-MEL-28 cells after 48 hrs by SRB assay; conditions: SK-MEL-28, 48 h
NCI-H460 = assay: Cytotoxicity against human NCI-H460 cells assessed as cell growth at 10^-7 M after 48 hrs by SRB assay relative to control; conditions: NCI-H460, 48 h, read-out: Activity
A498 [14] = assay: Cytotoxicity against human A498 cells after 48 hrs by SRB assay; conditions: A498, 48 h
SF-295 = assay: Cytotoxicity against human SF295 cells assessed as cell growth at 10^-8 M after 48 hrs by SRB assay relative to control; conditions: SF-295, 48 h, read-out: Activity
[15] = Cytotoxicity against human PC3 cells after 48 hrs by SRB assay; conditions: PC-3, 48 h
SK-MEL-2 = assay: Cytotoxicity against human SK-MEL-2 cells assessed as cell growth at 10^-8 M after 48 hrs by SRB assay relative to control; conditions: SK-MEL-2, 48 h, read-out: Activity
786-0 [16] = assay: Cytotoxicity against human 786-0 cells assessed as cell growth at 10^-8 M after 48 hrs by SRB assay relative to control; conditions: 786-0, 48 h, read-out: Activity
[17] = Cytotoxicity against human SKOV3 cells after 48 hrs by SRB assay; conditions: SK-OV-3, 48 h
ACHN = assay: Cytotoxicity against human ACHN cells assessed as cell growth at 10^-7 M after 48 hrs by SRB assay relative to control; conditions: read-out: Activity
HT-29 = assay: Cytotoxicity against human HT-29 cells assessed as cell growth at 10^-6 M after 48 hrs by SRB assay relative to control; conditions: HT-29, 48 h, read-out: Activity
SF-539 = assay: Cytotoxicity against human SF539 cells assessed as cell growth at 10^-6 M after 48 hrs by SRB assay relative to control; conditions: SF-539, 48 h, read-out: Activity
SK-MEL-5 = assay: Cytotoxicity against human SK-MEL-5 cells assessed as cell growth at 10^-4 M after 48 hrs by SRB assay relative to control; conditions: SK-MEL-5, 48 h, read-out: Activity
[18] = read-out: LC50 (the source's name)

For `CC(C)=CCC[C@H](C)c1ccc(C)c(CNCC2CCNCC2)c1O`, the growth at 0.1 µM (TK-10) was 92%, the growth at 0.1 µM (T47D) was 100% and the growth at 0.1 µM (CAKI-1) was 94%. The growth at 0.01 µM [1] was 95%, the growth at 0.1 µM [2] was 98% and the growth at 100 µM (SK-MEL-28 [3]) was -91%. It also gave a growth at 1 µM [4] of 98%, a growth at 1 µM (MDA-MB-468) of 90% and a growth at 0.01 µM [5] of 99%. The growth at 0.01 µM (LOX IMVI) was 95%, the growth at 0.01 µM (SF-268 [6]) was 97% and the GI50 (IGROV-1) was 9.4 µM. For the same molecule, the LC50 (concentration killing 50% of cells) (IGROV-1) was over 25 µM, the TGI (IGROV-1) was over 25 µM and the growth at 0.1 µM (786-0 [7]) was 87%. For the same molecule, the GI50 (Malme-3M) was 4.5 µM, the TGI (Malme-3M) was 9.68 µM and the CC50 (Malme-3M; [18]) was 20.8 µM. For the same molecule, the growth at 0.1 µM [8] was 100%, the GI50 (KM12) was 4.12 µM and the TGI (KM12) was 8.38 µM. For the same molecule, the CC50 (KM12; [18]) was 17.1 µM, the growth at 0.1 µM (SF-268 [9]) was 97% and the growth at 0.01 µM (SNB-19) was 92%. For the same molecule, the growth at 100 µM (A498 [10]) was 43%, the growth at 0.1 µM [11] was 90% and the growth at 0.01 µM [12] was 100%. For the same molecule, the GI50 (HL-60(TB)) was 5.02 µM, the TGI (HL-60(TB)) was 10.2 µM and the CC50 (HL-60(TB); [18]) was 20.7 µM. For the same molecule, the GI50 (MDA-MB-231) was 3.48 µM, the LC50 (MDA-MB-231) was 19.3 µM and the TGI (MDA-MB-231) was 8.19 µM. For the same molecule, the GI50 (SK-MEL-28 [13]) was 4.2 µM, the TGI (SK-MEL-28 [13]) was 7.89 µM and the CC50 (SK-MEL-28 [13]; [18]) was 14.8 µM. It also gave a growth at 0.1 µM (NCI-H460) of 98%, a GI50 (A498 [14]) of 12.1 µM and a TGI (A498 [14]) of over 25 µM. The CC50 (A498 [14]; [18]) was over 25 µM, the growth at 0.01 µM (SF-295) was 96% and the GI50 [15] was 6.88 µM. The LC50 [15] was over 25 µM, the TGI [15] was over 25 µM and the growth at 0.01 µM (SK-MEL-2) was 102%. The growth at 0.01 µM (786-0 [16]) was 93%, the GI50 [17] was 6.82 µM and the LC50 (concentration killing 50% of cells) [17] was over 25 µM. The TGI [17] was over 25 µM, the growth at 0.1 µM (ACHN) was 94% and the growth at 1 µM (HT-29) was 113%. For the same molecule, the growth at 1 µM (SF-539) was 92% and the growth at 100 µM (SK-MEL-5) was 100%.
